Tests used:
[1] = target: T1, ALK2 R206H (GST-tagged mutant ALK2) (Homo sapiens, UniProt Q04771, R206H); assay: ALK binding assay (LANTHASCREEN TR-FRET competitive binding, displacement of Kinase Tracer 178); conditions: ALK2 R206H, LANTHASCREEN TR-FRET competitive binding; read-out: Binding Assay (IC50)
T1 construct: purchased Carna Bioscience or ThermoFisher 09-148 or PV6232
T1 sequence (Q04771 21-509 R206H): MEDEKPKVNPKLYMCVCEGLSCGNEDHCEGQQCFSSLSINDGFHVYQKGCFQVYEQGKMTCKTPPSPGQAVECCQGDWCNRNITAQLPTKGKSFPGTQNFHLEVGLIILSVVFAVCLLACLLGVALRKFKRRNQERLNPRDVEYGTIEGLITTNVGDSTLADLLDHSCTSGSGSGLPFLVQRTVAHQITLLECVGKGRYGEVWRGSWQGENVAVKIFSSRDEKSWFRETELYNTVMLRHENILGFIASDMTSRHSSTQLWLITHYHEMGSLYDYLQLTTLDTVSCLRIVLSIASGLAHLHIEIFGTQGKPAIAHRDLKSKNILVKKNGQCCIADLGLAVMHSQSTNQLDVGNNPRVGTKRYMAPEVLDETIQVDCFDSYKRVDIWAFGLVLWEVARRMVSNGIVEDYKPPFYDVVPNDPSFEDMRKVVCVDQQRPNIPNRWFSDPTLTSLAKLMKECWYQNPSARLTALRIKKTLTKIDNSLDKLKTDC

human ALK2 R206H = target: T2, human ALK2 R206H (Homo sapiens, UniProt Q04771, R206H); assay: Cell-based ALK2-R206H cell activity assay (Smad1-Ser463/Ser465 phosphorylation by AlphaLISA in HEK293-ALK2-R206H cells); conditions: read-out: Cell Line (Cell Assay IC50)
T2 construct: expressed in transfected cells; host or cells: HEK293 (ATCC CRL1573), lentivirus transduction, blasticidin selection
T2 sequence (Q04771 21-509 R206H): T1 sequence (Q04771 21-509 R206H)
How it was run: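 Stable HEK293 cells expressing C-terminally FLAG-tagged human ALK2 R206H (lentiviral, blasticidin-selected) were treated with compounds in 10-point, 3-fold dilutions from 10 μM or 1 μM top, in duplicate. Smad1 Ser463/Ser465 phosphorylation was read by AlphaLISA.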

SMILES | IC50 [1] [µM] | IC50 (human ALK2 R206H) [µM]
CC(C)N1CCC[C@@H](c2ccc(-c3cc4c(N5CCN(C(=O)OC(CO)CO)CC5)ccnn4c3)cc2)C1 [Compound 837] | < 0.01 | 0.1 to 0.5
CC[C@@H](C)N1CCC(c2ccc(-c3cc4c(N5CCN(C(=O)C6CC6)CC5)ccnn4c3)cc2)CC1 [Compound 563] | < 0.01 | < 0.1
CCN1CCN(c2ccc(-c3cc4c(N5CCN(C(=O)C6CC6)CC5)ccnn4c3)c(OC(F)F)c2)CC1 [Compound 427] | < 0.01 | 0.1 to 0.5
CC(C)N1CCC(c2ccc(-c3cc4c(N5CCN(C(=O)OC6COC6)CC5)ccnn4c3)cc2)CC1 [Compound 629] | < 0.01 | < 0.1
CC(C)N1CCC(c2ccc(-c3cc4c(N5CCN(C(=O)NC6CCC6)CC5)ccnn4c3)cc2)CC1 [Compound 380] | < 0.01 | < 0.1
O=C([C@H]1CC[C@H](O)CC1)N1CCN(c2ccnn3cc(-c4ccc(C5CNCCO5)cc4)cc23)CC1 (some centres unmarked) [Compound 343] | < 0.01 | 0.1 to 0.5
O=C(C1CC1)N1CCN(c2ccnn3cc(-c4ccc(N5CCNCC5)cc4OC(F)F)cc23)CC1 [Compound 363] | < 0.01 | 0.1 to 0.5
CC(C)NC(=O)N1CCN(c2ccnn3cc(-c4ccc(C5(C(F)(F)F)CCN(C(C)C)CC5)cc4)cc23)CC1 [Compound 738] | < 0.01 | < 0.1
CC(C)N1CCN(C)[C@@](C)(c2ccc(-c3cc4c(N5CCN(C(=O)C6CC6)CC5)ccnn4c3)cc2)C1 [Compound 620] | < 0.01 | < 0.1
CCN1CCC(c2ccc(-c3cc4c(N5CCN(C(=O)C6CC6)CC5)ccnn4c3)cc2)C1 (centres unmarked) [Compound 147] | < 0.01 | < 0.1
CC(C)N1CCC(c2ccc(-c3cc4c(N5CCN(C(=O)[C@H]6C[C@@H]6C#N)[C@H](C)C5)ccnn4c3)cc2)CC1 [Compound 407] | < 0.01 | < 0.1
CCN1CCN(c2ccc(-c3cc4c(N5CCN(C(=O)[C@H]6C[C@H]6F)CC5)ccnn4c3)cc2)CC1 [Compound 293] | < 0.01 | < 0.1
COC1(c2ccc(-c3cc4c(N5CCN(C(=O)NC(C)C)CC5)ccnn4c3)cc2)CCN(C(C)C)CC1 [Compound 829] | < 0.01 | < 0.1
CCNC(=O)N1CCN(c2ccnn3cc(-c4ccc(C5(OC)CCCN(C(C)C)C5)cc4)cc23)CC1 (centres unmarked) [Compound 400] | < 0.01 | < 0.1
CCN1CCN(c2ccc(-c3cc4c(N5CCN(C(=O)C6CC(F)(F)C6)CC5)ccnn4c3)cc2)CC1 [Compound 402] | < 0.01 | 0.1 to 0.5
COC1(c2ccc(-c3cc4c(N5CCN(C(=O)OC6COC6)CC5)ccnn4c3)nc2)CCN(C2COC2)CC1 [Compound 733] | < 0.01 | < 0.1
CCN1CCN(c2ccc(-c3cc4c(N5CCN(C(=O)C6CC6)CC5)ccnn4c3)cc2)CC1(C)C [Compound 316] | < 0.01 | 0.1 to 0.5
CC(C)N1CC[C@H](c2ccc(-c3cc4c(N5CCN(C(=O)N6CC(C#N)C6)CC5)ccnn4c3)cc2)C1 [Compound 368] | < 0.01 | < 0.1
CCN1CCN(c2ccc(-c3cc4c(N5CCN(C(=O)[C@H]6C[C@H](O)C6)CC5)ccnn4c3)cc2)CC1 [Compound 336] | < 0.01 | < 0.1
CCN1CCC(c2ccc(-c3cc4c(N5CCN(C(=O)N6CCC(O)CC6)CC5)ccnn4c3)cc2)CC1 [Compound 423] | < 0.01 | 0.1 to 0.5
CC(C)N1CCC(C#N)(c2ccc(-c3cc4c(N5CCN(C(=O)C6CC6)CC5)ccnn4c3)cc2)CC1 [Compound 615] | < 0.01 | < 0.1
CC(C)N1CCC(c2ccc(-c3cc4c(N5CCN(C(=O)NC6COC6)CC5)ccnn4c3)cc2)CC1 [Compound 627] | < 0.01 | < 0.1
CCOC1(c2ccc(-c3cc4c(N5CCN(C(=O)C6CC6)CC5)ccnn4c3)cc2)CCN(C(C)C)CC1 [Compound 658] | < 0.01 | < 0.1
CCN1CC2(C1)CN(c1ccc(-c3cc4c(N5CCN(C(=O)N6CC(C#N)C6)CC5)ccnn4c3)cc1)C2 [Compound 404] | < 0.01 | 0.1 to 0.5
CO[C@@]1(c2ccc(-c3cc4c(N5CCN(C(=O)NC(C)C)CC5)ccnn4c3)cc2)CCN(C(C)C)C1 [Compound 638] | < 0.01 | < 0.1
